Assay in all cases: NCI-60 cell line screen, 48 h
In experiment [1] the test system is HCT-15.
Experiment [2] has as its system A498.
The test system of experiment [3] is Malme-3M.
Experiment [4] concerns SK-MEL-5.
Experiment [5] has as its system ACHN.
The test system of experiment [6] is HT-29.
The subject of experiment [7] is OVCAR-4.
For experiment [8], the system named is PC-3.
Experiment [9] has as its system MOLT-4.
Experiment [10] deals with NCI-H522.
For experiment [11], the system named is KM12.
The test system of experiment [12] is SK-MEL-2.
The test system of experiment [13] is IGROV-1.
Experiment [14] deals with 786-0.
Experiment [15] deals with UACC-257.
Experiment [16] concerns SF-268.
Experiment [17] concerns HCT-116.
Experiment [18] concerns OVCAR-3.
Experiment [19] concerns T47D.
The subject of experiment [20] is NCI-H226.

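Briefly, cells in 96-well plates were exposed to five compound concentrations for 48 h, and endpoints were estimated by linear interpolation. GI50 marks 50% less growth.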 The source made the active and inactive calls. No stated cut-off is given here; in the data, active = GI50 up to about 1.1 µM and inactive = higher. Where only a bound is given, the exact number is not on record here.

Regarding `c1ccc(-c2cc(-c3cc(-c4ccccn4)[nH]n3)n[nH]2)nc1`, the GI50 in experiment [1] was 55.7 µM; in [2] it was > 100 µM (inactive); in experiment [3], > 100 µM (inactive); in [4], > 100 µM (inactive); in experiment [5] it was > 100 µM (inactive); in experiment [6] it was 38.8 µM (inactive). Also, the GI50 in [7] was > 100 µM (inactive); in experiment [8], > 100 µM (inactive); in [9] it was 33.3 µM (inactive); in [10], > 100 µM (inactive); in experiment [11], > 100 µM (inactive); in [12] it was > 100 µM (inactive). The GI50 was > 100 µM (inactive) in [13]; 41.9 µM (inactive) in experiment [14]; > 100 µM (inactive) in experiment [15]; > 100 µM (inactive) in experiment [16]; 27.7 µM (inactive) in [17]; 74.1 µM (inactive) in [18]. Further, the GI50 in experiment [19] is 80.4 µM (inactive); in experiment [20], > 100 µM (inactive).

In the case of `O=C1CC(c2ccccc2Cl)C2(C(=O)NC(=S)NC2=O)C(c2ccccc2Cl)C1` (stereo not given), the GI50 was 21.1 µM in experiment [1]; 21.4 µM (inactive) in experiment [2]; 1.56 µM (inactive) in experiment [3]; 23.9 µM (inactive) in experiment [4]; 24.8 µM (inactive) in experiment [5]; 74 µM (inactive) in [6]. The GI50 in [7] is 52 µM (inactive); in experiment [8], 23.6 µM (inactive); in experiment [9], 54.7 µM (inactive); in [10] it was 34.1 µM (inactive); in [11] it was 12.9 µM (inactive); in experiment [12], 37.1 µM (inactive). In addition, the GI50 was 25.9 µM (inactive) in experiment [13]; 21.5 µM (inactive) in experiment [14]; 13.6 µM (inactive) in experiment [15]; 19 µM (inactive) in experiment [16]; 20 µM (inactive) in experiment [17]; 26.5 µM (inactive) in experiment [18]. The figures for the GI50 in experiment [19] and in experiment [20] were 45.6 µM (inactive) and 28.6 µM (inactive), respectively.

Take `FC1=C2C3CCC(C3)C2C1(F)F` (stereo not given): the GI50 is over 100 µM in experiment [1]; > 100 µM (inactive) in experiment [2]; > 100 µM (inactive) in experiment [3]; > 100 µM (inactive) in [4]; > 100 µM (inactive) in [5]; > 100 µM (inactive) in experiment [6]. Also, the GI50 in [7], in [8], in experiment [9], in experiment [10], in experiment [11] and in [12] was > 100 µM (inactive) throughout. The GI50 in experiment [13], in experiment [14], in experiment [15], in [16], in [17] and in experiment [18] was > 100 µM (inactive) throughout. For the same compound, the GI50 in experiment [19] and in experiment [20] was > 100 µM (inactive) in each case.

For the compound `COc1ccc(C2SCC(=O)N2c2ccc(-n3c(-c4ccccc4)nc4ccccc4c3=O)cc2)cc1OC` (stereo not given), the GI50 is over 100 µM in experiment [1]; > 100 µM (inactive) in [2]; > 100 µM (inactive) in [3]; > 100 µM (inactive) in experiment [4]; > 100 µM (inactive) in [5]; > 100 µM (inactive) in [6]. Moreover, the GI50 in experiment [7] was > 10 µM (inactive); in experiment [8], 71.3 µM (inactive); in experiment [9], 24.5 µM (inactive); in experiment [10], 90.6 µM (inactive); in experiment [11], > 100 µM (inactive); in [12], > 100 µM (inactive). The GI50 in [13], in experiment [14], in [15], in experiment [16], in experiment [17] and in [18] was > 100 µM (inactive) in each case. Moreover, the GI50 was 90.6 µM (inactive) in experiment [19] and 31.3 µM (inactive) in [20].

The record behind these values is ChEMBL document CHEMBL1201862, “PubChem BioAssay data set” (2004).
